Results taken from patent publication US20260124181A1, “AGENT FOR REDUCING BLOOD MYOSTATIN LEVEL” (KOWA COMPANY, LTD., priority 2022, published 2026).

System: blood myostatin
Test: Effect of compound A on blood myostatin in NAFLD patients, oral administration for 72 weeks versus placebo
Assay type: in vivo, human
Details: 0.4 mg per day oral (0.2-mg tablet twice a day)
Experimental: An effect on blood myostatin at the time of the oral administration of 0.4 mg per day of the compound A (a 0.2-mg tablet of the compound A was administered twice a day at the time of fasting) to a patient of a nonalcoholic fatty liver disease (NAFLD) for 72 weeks was investigated by comparison to the administration of a placebo. […] It was clear from FIG. 1 that the administration of the compound A reduced the fasting blood myostatin concentration at 12 weeks and 72 weeks from the administration in a stepwise manner as compared to the placebo administration.

With CC[C@@H](Oc1cccc(CN(CCCOc2ccc(OC)cc2)c2nc3ccccc3o2)c1)C(=O)O [Compound A, (R)-2-[3-[[N-(benzoxazol-2-yl)-N-3-(4-methoxyphenoxy)propyl]aminomethyl]phenoxy]butyric acid] the “fasting blood myostatin concentration, change from baseline as compared to placebo” value (12 weeks after start of administration) was “reduced” and the “fasting blood myostatin concentration, change from baseline as compared to placebo” value (72 weeks after start of administration) was “reduced”.
